Laboratory results: ChEMBL document CHEMBL1201862, “PubChem BioAssay data set” (2004)
Active and inactive are the calls of the source.

Key:
[1] = target: T1, Carboxy-terminal domain RNA polymerase II polypeptide A small phosphatase 1 (Homo sapiens, UniProt Q9GZU7); assay: CTDSP1 inhibitors, concentration-response, biochemical, absorbance readout, ultra-high-throughput screen actives (AID 540297); type: functional
T1 sequence (Q9GZU7 whole entry): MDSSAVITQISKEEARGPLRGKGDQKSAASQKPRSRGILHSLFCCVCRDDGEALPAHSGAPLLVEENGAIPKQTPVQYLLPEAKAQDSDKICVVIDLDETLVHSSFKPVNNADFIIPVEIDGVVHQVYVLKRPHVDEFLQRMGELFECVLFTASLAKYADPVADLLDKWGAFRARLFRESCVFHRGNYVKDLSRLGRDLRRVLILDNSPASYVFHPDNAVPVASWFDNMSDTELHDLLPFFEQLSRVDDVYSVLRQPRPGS

Bcl-2-like protein 10 = Bcl-2-like protein 10 (Homo sapiens, UniProt Q9HD36); assay: Bcl-B/TR3 peptide binding disruption – biochemical, fluorescence polarization, FITC-TR3 peptide, selectivity assay for Bfl-1 inhibitor project, primary screen (AID 748);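 note: fluorescence polarization from a fluorescein-labelled TR3 peptide binding purified Bcl-B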
[2] = target: T2, DNA dC->dU-editing enzyme APOBEC-3A (Homo sapiens, UniProt P31941); assay: Dose Response confirmation of small molecule APOBEC3A DNA Deaminase Inhibitors via a fluorescence-based single-stranded DNA deaminase assay. [Related pubchem assays (depositor defined):AID493011, AID493024]; type: functional
[3] = target: T3, DNA dC->dU-editing enzyme APOBEC-3G (Homo sapiens, UniProt Q9HC16); type: functional
CAAX prenyl protease 2 [4] = target: CAAX prenyl protease 2 (Saccharomyces cerevisiae S288c, UniProt Q03530); type: biochemical
[5] = target: G-protein coupled receptor 55 (Homo sapiens, UniProt Q9Y2T6); assay: inhibition of LPI-stimulated GPR55 beta-arrestin translocation – imaging, U2OS, beta-arrestin-GFP, LPI agonist, primary screen (AID 2013); type: functional;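 note: antagonist potency measured as reduced agonist-driven arrestin aggregation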
Streptococcus = assay: GAS UMAA2166 growth inhibition – luminescence, BacTiterGlo, counter-screen for streptokinase expression inhibitor project, dose response (AID 1915); type: functional, organism-based;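 note: potency for reduction of bacterial viability or growth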
HeLa = assay: ATP-based viability loss in HeLa cells – cell-based, CellTiter-Glo luminescence, cherry-pick samples, cytotoxicity control for MITF activator project, dose response (AID 540259); type: functional; settings: Homo sapiens
cells = type: functional, cell-based
Streptokinase A = target: T4, Streptokinase A (Streptococcus pyogenes serotype M1, UniProt P10520); assay: viability-normalized secreted streptokinase activity reduction – plasminogen activation absorbance, OD405, dose response (AID 1914); type: functional, Streptococcus pyogenes M1 GAS;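 note: secreted streptokinase activity via plasminogen activation per viability signal from cell pellet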
T4 sequence (P10520 whole entry): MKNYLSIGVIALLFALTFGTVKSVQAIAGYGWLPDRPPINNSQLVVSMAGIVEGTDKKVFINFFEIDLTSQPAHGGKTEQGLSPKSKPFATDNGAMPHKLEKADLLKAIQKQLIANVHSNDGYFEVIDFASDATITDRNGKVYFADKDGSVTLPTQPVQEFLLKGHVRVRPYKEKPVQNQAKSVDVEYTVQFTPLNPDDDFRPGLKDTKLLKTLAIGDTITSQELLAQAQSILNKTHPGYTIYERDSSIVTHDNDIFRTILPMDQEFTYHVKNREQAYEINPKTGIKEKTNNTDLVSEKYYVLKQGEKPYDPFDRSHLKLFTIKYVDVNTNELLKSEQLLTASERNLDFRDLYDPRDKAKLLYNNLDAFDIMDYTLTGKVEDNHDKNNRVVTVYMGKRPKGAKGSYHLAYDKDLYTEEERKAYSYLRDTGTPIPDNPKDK

[6] = target: T5, Nuclear receptor subfamily 0 group B member 1 (Homo sapiens, UniProt P51843); type: functional, cell-based;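 note: HEK293T cells transfected with SF-1 and DAX-1 plus StAR promoter luciferase reporter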
T5 sequence (P51843 whole entry): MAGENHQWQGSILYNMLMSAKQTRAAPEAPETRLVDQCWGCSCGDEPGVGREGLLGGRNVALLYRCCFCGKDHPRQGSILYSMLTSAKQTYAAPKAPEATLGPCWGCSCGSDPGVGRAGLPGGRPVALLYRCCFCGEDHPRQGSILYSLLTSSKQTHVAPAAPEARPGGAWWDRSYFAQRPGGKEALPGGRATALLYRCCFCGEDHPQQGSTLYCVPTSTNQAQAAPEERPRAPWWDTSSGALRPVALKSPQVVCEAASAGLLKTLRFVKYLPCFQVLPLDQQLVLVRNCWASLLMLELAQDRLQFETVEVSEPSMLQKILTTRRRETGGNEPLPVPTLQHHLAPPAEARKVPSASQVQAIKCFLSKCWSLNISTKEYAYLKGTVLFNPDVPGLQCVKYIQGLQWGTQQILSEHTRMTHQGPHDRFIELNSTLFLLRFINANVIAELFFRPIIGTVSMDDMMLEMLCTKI

[7] = tested on: Streptococcus sp. 'group A'; assay: Streptococcus pyogenes SK(-)GAS viability under kanamycin – luminescence, BacTiterGlo, confirmation, counter-screen for streptokinase expression inhibitor project, dose response (AID 1900); type: functional, organism-based
Cytochrome P450 3A4 = Cytochrome P450 3A4 (Homo sapiens, UniProt P08684);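 note: CYP3A4 tested as one member of a cytochrome P450 panel screen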
Cytochrome P450 2C9 = Cytochrome P450 2C9 (Homo sapiens, UniProt P11712)
Trypsin = Trypsin (Sus scrofa, UniProt P00761); assay: trypsin protease activity blockade – biochemical, quenched peptide fluorescence, cherry-pick, selectivity assay for Rce1 protease inhibitor project, dose response (AID 488789)
CAAX prenyl protease 2 [8] = target: T6, CAAX prenyl protease 2 (Homo sapiens, UniProt Q9Y256); assay: inhibition of Ras-converting CAAX protease Rce1 – biochemical, yeast membranes, quenched-peptide fluorescence, cherry-pick, dose response (AID 588849)
T6 sequence (Q9Y256 whole entry): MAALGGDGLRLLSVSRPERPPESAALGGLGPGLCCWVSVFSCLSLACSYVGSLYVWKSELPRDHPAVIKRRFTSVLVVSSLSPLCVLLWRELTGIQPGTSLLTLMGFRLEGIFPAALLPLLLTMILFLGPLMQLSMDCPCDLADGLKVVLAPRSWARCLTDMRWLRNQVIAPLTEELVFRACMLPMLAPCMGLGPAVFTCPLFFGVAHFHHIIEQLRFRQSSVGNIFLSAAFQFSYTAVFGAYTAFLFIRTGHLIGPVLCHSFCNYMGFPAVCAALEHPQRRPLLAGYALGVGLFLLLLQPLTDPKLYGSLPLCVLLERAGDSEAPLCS

Cytochrome P450 2C19 = Cytochrome P450 2C19 (Homo sapiens, UniProt P33261); assay: Cytochrome panel assay with activity outcomes. Panel member name: p450-cyp2c19 Compounds with AC50 equal or less than 10 uM are considered active; type: functional; settings: read-out: AC50
[9] = target: T7, Phosphoethanolamine/phosphocholine phosphatase (Homo sapiens, UniProt Q8TCT1); assay: SAR assay for compounds that inhibit PHOSPHO1. [Related pubchem assays (depositor defined):AID1545, AID1565, AID1574]
T7 sequence (Q8TCT1 whole entry): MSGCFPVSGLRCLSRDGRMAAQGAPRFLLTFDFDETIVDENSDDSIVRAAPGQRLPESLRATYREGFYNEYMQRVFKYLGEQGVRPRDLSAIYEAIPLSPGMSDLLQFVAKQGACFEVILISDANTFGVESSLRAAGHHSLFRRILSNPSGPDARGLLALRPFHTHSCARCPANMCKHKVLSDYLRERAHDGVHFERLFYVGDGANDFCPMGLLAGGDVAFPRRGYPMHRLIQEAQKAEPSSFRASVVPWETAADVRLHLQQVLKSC

[10] = target: T8, Mannose-6-phosphate isomerase (Homo sapiens, UniProt P34949); assay: phosphomannose isomerase inhibition – biochemical, fluorescence intensity, confirmation (AID 1535)
T8 sequence (P34949 whole entry): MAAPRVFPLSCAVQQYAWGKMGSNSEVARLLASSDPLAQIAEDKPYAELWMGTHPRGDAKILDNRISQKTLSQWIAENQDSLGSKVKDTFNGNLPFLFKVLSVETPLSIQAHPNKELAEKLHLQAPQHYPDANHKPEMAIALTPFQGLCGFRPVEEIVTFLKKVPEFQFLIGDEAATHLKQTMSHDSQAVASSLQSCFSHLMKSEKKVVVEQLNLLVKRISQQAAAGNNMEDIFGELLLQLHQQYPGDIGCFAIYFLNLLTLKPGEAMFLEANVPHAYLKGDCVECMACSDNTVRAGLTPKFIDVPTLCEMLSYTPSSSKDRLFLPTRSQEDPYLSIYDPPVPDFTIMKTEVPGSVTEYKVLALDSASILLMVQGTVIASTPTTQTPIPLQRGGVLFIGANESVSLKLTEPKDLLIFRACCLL

[11] = target: T2, DNA dC->dU-editing enzyme APOBEC-3A; assay: A3A deaminase inhibition for selectivity – biochemical, dose response (AID 504722); type: functional
Large T antigen = Large T antigen (Simian virus 40, UniProt P03070); type: functional, Betapolyomavirus macacae;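 note: Confirmatory-stage PubChem screen for compounds that inhibit SV40 T antigen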
Phosphomannomutase 2 = target: T9, Phosphomannomutase 2 (Homo sapiens, UniProt O15305); assay: Counter screen SAR assay for PMM2 inhibitors via a fluorescence intensity assay. [Related pubchem assays (depositor defined):AID1545, AID1574]
T9 sequence (O15305 whole entry): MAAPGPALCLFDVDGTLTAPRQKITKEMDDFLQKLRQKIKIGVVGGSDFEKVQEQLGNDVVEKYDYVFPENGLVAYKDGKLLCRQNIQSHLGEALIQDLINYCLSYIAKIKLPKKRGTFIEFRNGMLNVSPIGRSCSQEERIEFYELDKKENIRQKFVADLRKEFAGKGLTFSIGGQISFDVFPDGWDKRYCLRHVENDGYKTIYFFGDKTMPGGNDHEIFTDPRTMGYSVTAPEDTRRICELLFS

[12] = target: T3, DNA dC->dU-editing enzyme APOBEC-3G; assay: Dose Response confirmation of small molecule APOBEC3G DNA Deaminase Inhibitors via a fluorescence-based single-stranded DNA deaminase assay. [Related pubchem assays (depositor defined):AID493012, AID493028]; type: functional
[13] = Counterscreen for IDE inhibitors: Luminescence-based cell-based high throughput dose response assay to identify compounds that are cytotoxic to HEK cells. [Related pubchem assays: 434962 (Primary screen (IDE inhibitors in singlicate)), 449730 (Counterscreen (Cytotoxicity in triplicate)), 435028 (Confirmation (IDE inhibitors in triplicate)) …; type: functional; settings: HEK293
[14] = target: Eukaryotic translation initiation factor 4E (Mus musculus, UniProt P63073); assay: blockers of eIF4G binding by eIF4E – biochemical, TR-FRET, dose response (AID 855); type: functional;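 note: potency for disrupting eIF4E binding to eIF4GI seen as loss of FRET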
Insulin-degrading enzyme = Insulin-degrading enzyme (Homo sapiens, UniProt P14735); assay: Dose Response: Fluorescence polarization-based cell-based high throughput dose response assay for inhibitors of insulin-degrading enzyme (IDE). [Related pubchem assays: 434962 (Primary screen (IDE inhibitors in singlicate)), 449730 (Counterscreen (Cytotoxicity in triplicate)), 435028 (Confirmation (IDE inhibitors in triplicate)), 434984 (Summary …; type: functional
Insulin-degrading enzyme, sequence (P14735 whole entry): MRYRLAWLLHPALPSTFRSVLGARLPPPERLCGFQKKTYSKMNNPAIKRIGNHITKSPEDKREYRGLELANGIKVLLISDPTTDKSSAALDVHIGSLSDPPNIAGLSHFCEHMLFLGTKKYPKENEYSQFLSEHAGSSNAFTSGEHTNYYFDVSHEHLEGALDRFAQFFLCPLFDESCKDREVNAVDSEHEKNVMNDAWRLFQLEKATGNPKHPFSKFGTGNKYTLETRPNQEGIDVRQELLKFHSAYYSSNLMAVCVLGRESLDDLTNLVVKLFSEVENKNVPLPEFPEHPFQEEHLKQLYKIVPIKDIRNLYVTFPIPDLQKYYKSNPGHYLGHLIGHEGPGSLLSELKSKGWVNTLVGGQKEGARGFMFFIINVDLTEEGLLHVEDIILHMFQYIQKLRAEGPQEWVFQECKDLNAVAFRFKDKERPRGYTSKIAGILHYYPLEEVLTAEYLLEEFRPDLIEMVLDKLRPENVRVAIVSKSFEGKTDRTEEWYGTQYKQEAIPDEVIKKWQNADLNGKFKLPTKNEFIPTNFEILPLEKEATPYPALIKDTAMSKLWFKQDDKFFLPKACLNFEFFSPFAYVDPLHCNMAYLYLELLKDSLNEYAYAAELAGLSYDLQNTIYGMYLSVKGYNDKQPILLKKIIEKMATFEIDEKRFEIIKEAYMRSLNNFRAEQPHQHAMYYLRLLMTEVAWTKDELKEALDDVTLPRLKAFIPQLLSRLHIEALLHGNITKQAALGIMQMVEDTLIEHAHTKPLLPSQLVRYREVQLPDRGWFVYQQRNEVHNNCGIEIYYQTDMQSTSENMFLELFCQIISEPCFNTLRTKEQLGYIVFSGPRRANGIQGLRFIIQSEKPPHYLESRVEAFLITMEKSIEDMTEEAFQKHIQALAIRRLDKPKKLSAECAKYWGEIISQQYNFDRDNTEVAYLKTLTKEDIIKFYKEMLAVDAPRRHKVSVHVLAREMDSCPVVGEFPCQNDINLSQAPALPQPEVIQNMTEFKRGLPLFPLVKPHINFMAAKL

CAAX prenyl protease 2 (Saccharomyces cerevisiae S288c, UniProt Q03530), sequence (Q03530 whole entry): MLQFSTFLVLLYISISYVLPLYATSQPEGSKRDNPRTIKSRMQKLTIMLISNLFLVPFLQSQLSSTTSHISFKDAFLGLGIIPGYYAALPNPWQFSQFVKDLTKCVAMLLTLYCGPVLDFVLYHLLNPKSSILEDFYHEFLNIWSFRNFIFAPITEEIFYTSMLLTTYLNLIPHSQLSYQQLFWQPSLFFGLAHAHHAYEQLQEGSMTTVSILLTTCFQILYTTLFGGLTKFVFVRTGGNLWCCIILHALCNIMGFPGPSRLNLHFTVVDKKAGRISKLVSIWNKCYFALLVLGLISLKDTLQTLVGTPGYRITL
G-protein coupled receptor 55, sequence (Q9Y2T6 whole entry): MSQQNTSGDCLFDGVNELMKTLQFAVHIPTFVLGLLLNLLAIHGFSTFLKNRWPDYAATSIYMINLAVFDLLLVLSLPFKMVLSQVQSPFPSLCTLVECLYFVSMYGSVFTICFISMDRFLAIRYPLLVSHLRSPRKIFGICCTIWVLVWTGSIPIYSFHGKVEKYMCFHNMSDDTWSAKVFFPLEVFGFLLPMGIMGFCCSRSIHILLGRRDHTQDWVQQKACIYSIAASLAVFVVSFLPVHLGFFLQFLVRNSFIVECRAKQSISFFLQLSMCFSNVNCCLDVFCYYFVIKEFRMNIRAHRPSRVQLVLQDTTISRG
T3 sequence (Q9HC16 whole entry): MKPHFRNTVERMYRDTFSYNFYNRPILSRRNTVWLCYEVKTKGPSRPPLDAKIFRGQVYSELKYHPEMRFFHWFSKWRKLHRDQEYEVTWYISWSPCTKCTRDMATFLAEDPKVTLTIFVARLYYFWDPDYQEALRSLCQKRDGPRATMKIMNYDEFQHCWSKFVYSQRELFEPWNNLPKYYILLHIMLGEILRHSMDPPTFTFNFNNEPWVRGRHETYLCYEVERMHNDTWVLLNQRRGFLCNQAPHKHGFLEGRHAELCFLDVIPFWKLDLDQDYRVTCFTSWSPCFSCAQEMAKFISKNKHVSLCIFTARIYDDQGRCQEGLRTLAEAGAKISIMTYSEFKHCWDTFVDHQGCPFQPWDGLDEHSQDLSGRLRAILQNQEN
T2 sequence (P31941 whole entry): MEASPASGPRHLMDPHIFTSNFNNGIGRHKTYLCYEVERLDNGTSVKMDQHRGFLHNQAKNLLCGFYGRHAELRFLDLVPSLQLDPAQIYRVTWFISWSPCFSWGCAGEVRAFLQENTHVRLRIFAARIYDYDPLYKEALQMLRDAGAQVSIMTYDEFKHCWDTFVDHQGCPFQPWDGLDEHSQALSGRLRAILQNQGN
Cytochrome P450 2C9, sequence (P11712 whole entry): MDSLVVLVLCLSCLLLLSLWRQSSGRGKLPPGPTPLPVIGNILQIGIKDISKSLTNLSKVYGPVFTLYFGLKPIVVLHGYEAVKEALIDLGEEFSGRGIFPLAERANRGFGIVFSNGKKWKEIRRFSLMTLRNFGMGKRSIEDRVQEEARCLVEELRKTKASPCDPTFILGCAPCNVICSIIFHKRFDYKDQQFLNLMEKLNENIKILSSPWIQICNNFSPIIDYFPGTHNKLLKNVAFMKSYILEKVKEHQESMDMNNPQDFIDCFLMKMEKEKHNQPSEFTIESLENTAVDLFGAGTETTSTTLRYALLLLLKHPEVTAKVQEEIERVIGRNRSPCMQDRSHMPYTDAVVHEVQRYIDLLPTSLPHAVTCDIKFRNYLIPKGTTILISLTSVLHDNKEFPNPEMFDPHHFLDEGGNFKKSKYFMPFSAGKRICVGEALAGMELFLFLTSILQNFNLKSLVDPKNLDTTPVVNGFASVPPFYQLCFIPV
Cytochrome P450 3A4, sequence (P08684 whole entry): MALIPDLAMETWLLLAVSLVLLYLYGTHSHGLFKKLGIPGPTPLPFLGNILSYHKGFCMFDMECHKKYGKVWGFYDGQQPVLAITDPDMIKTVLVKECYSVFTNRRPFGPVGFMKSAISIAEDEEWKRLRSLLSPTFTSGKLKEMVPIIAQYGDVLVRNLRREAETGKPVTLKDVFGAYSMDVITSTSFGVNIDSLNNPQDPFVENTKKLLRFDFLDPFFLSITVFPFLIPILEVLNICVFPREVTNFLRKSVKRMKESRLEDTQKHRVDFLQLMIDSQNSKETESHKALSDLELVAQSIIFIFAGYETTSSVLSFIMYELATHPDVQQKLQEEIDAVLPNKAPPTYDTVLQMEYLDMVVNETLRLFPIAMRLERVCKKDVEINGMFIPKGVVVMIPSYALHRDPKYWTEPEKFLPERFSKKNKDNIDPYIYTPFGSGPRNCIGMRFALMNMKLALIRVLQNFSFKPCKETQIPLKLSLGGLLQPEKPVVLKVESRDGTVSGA
Cytochrome P450 2C19, sequence (P33261 whole entry): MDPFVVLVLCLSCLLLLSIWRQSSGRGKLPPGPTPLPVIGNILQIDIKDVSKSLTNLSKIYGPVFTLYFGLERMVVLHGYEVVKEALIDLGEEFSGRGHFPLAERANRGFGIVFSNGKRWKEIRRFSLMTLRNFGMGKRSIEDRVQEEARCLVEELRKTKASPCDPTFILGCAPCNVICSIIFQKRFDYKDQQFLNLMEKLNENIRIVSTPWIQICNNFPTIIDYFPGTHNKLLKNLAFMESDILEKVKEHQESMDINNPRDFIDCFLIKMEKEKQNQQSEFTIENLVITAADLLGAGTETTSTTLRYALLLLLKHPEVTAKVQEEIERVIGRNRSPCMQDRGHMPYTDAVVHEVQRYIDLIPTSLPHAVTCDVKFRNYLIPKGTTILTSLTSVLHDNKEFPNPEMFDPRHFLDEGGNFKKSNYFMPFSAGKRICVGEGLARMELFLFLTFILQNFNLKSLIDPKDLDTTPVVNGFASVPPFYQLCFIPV
Trypsin, sequence (P00761 whole entry): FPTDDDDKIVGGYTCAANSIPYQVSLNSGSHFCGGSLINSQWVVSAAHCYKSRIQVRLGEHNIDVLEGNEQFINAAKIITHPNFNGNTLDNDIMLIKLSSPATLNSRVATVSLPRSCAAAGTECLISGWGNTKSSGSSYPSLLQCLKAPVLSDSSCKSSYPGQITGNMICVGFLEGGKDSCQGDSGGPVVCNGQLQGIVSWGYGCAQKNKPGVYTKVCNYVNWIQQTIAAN
Large T antigen, sequence (P03070 whole entry): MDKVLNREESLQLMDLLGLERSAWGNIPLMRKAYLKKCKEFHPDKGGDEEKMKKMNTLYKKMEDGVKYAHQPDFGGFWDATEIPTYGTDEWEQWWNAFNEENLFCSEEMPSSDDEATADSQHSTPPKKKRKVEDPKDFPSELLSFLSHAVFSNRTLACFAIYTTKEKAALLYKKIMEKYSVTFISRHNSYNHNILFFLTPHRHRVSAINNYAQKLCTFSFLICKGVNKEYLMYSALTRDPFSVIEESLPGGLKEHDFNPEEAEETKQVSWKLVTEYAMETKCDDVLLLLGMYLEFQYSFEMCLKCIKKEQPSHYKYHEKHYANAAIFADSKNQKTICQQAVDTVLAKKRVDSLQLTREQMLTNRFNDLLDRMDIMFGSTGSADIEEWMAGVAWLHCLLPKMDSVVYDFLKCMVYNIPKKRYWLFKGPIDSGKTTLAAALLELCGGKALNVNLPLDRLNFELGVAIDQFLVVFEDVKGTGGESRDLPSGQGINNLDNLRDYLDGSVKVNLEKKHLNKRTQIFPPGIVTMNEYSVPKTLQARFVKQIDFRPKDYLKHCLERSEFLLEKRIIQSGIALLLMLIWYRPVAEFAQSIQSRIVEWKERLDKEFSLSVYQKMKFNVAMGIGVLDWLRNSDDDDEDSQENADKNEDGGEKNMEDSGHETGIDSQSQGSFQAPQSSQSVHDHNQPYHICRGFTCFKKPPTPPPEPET
Eukaryotic translation initiation factor 4E, sequence (P63073 whole entry): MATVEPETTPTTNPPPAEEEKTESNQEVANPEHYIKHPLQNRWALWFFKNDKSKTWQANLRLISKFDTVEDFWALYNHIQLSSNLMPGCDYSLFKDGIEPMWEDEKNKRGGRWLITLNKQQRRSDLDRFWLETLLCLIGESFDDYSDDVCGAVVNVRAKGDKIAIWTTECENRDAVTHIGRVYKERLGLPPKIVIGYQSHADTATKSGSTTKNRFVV

## O=C(COC(=O)C1CCN(S(=O)(=O)c2cc([N+](=O)[O-])ccc2Cl)CC1)Nc1ncc(Cl)cc1Cl
[1]
  IC50: 4.29 µM (active)
Bcl-2-like protein 10
  IC50: 3.81 µM (active)
[2]
  IC50: 17.9 µM (active)
[3]
  IC50: 36.3 µM (active)

## COc1ccc(NS(=O)(=O)c2ccc3oc(=O)c4[nH]c(=O)c(=O)n(C)c4c3c2)cc1
CAAX prenyl protease 2 [4]
  AC50: 22.7 µM (active)

## c1ccc(-c2nc(-c3nccc4ccccc34)oc2-c2ccccc2)cc1
[5]
  IC50: 3.48 µM (active)
Streptococcus
  EC50: > 150 µM (not active)
HeLa
  AC50: 132 µM (active)
cells
  IC50: > 67.5 µM (inactive)
Streptokinase A
  EC50: 5.23 µM (active)
[6]
  IC50: > 67.5 µM (inactive)
[7]
  EC50: > 150 µM (not active)

## Cc1cccc(Nc2ccccc2C(=O)OCC(=O)N(C)C2CCS(=O)(=O)C2)c1C (stereo unspecified)
Cytochrome P450 3A4
  AC50: 28.2 µM (inconclusive)
Cytochrome P450 2C9
  AC50: 39.8 µM (inconclusive)
Trypsin
  AC50: 15.5 µM (active)
CAAX prenyl protease 2 [8]
  AC50: 0.914 µM (active)
CAAX prenyl protease 2 [4]
  AC50: 3.45 µM (active)
Cytochrome P450 2C19
  AC50: 28.2 µM (inconclusive)

## COc1ccc(N(CC(=O)Nc2nc3ccc(C)cc3s2)S(=O)(=O)c2c(C)nn(C)c2C)cc1
[5]
  IC50: 2.04 µM (active)

## O=c1c2ccccc2sn1-c1cc(S(=O)(=O)N2CCOCC2)ccc1N1CCOCC1
[9]
  IC50: 1.27 µM (inactive)
[10]
  IC50: 2.6 µM (active)
[11]
  IC50: > 100 µM (inactive)
Streptococcus
  EC50: > 150 µM (not active)
Streptokinase A
  EC50: > 150 µM (not active)
Large T antigen
  IC50: 13.2 µM (active)
Phosphomannomutase 2
  IC50: 9.87 µM (active)
[12]
  IC50: 14 µM (active)
[7]
  EC50: 10.2 µM (active)
[13]
  IC50: 11 µM (not active)
[14]
  IC50: 5.36 µM (active)
Insulin-degrading enzyme
  IC50: 1.44 µM (active)
